# Test results published in PubChem BioAssay (NCI).
#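 Dose response: 5 concentrations. Exposure: 48 h. Format: 96-well plates. Endpoint: linear interpolation; highest concentration if not reached. GI50 = concentration required for 50% inhibition of growth. TGI denotes the concentration required for complete inhibition of growth.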
# Experiments:
# Assay in all cases: growth of human tumour cells (NCI), 48 h
# M19-MEL melanoma = system: M19-MEL melanoma
# KM12 colon = system: KM12 colon
# A549 NSCLC = system: A549 NSCLC
# U251 CNS = system: U251 CNS
# OVCAR-5 ovarian = system: OVCAR-5 ovarian
# IGROV1 ovarian = system: IGROV1 ovarian
# HCC-2998 colon = system: HCC-2998 colon
# OVCAR-8 ovarian = system: OVCAR-8 ovarian
# SK-MEL-28 melanoma = system: SK-MEL-28 melanoma
# XF 498 CNS = system: XF 498 CNS
# COLO 205 colon = system: COLO 205 colon
# DMS 273 small cell lung = system: DMS 273 small cell lung
# SNB-75 CNS = system: SNB-75 CNS
# KM20L2 colon = system: KM20L2 colon
# NCI-H460 lung = system: NCI-H460 lung
# OVCAR-3 ovarian = system: OVCAR-3 ovarian
# UO-31 renal = system: UO-31 renal
# UACC-257 melanoma = system: UACC-257 melanoma
# SK-OV-3 ovarian = system: SK-OV-3 ovarian
# HCT-116 colon = system: HCT-116 colon
# SN12C renal = system: SN12C renal
# CAKI-1 renal = system: CAKI-1 renal
# TK-10 renal = system: TK-10 renal
# 786-0 renal = system: 786-0 renal
# CCRF-CEM leukemia = system: CCRF-CEM leukemia
# SF-295 CNS = system: SF-295 CNS
# NCI-H522 lung = system: NCI-H522 lung
# SR leukemia = system: SR leukemia
# HCT-15 colon = system: HCT-15 colon
# UACC-62 melanoma = system: UACC-62 melanoma
# SF-539 CNS = system: SF-539 CNS
# EKVX NSCLC = system: EKVX NSCLC
# SK-MEL-2 melanoma = system: SK-MEL-2 melanoma
# SK-MEL-5 melanoma = system: SK-MEL-5 melanoma
# SF-268 CNS = system: SF-268 CNS
# M14 melanoma = system: M14 melanoma
# DLD-1 colon = system: DLD-1 colon
# SW-620 colon = system: SW-620 colon
# NCI-H23 lung = system: NCI-H23 lung
# HT29 colon = system: HT29 colon
# NCI-H226 lung = system: NCI-H226 lung
# HOP-62 NSCLC = system: HOP-62 NSCLC
# HOP-92 NSCLC = system: HOP-92 NSCLC
# LOX IMVI melanoma = system: LOX IMVI melanoma
# OVCAR-4 ovarian = system: OVCAR-4 ovarian
# DMS 114 small cell lung = system: DMS 114 small cell lung
# ACHN renal = system: ACHN renal
# HOP-18 NSCLC = system: HOP-18 NSCLC
# SNB-19 CNS = system: SNB-19 CNS
# A498 renal = system: A498 renal
# HL-60(TB) leukemia = system: HL-60(TB) leukemia
# K-562 leukemia = system: K-562 leukemia
# SNB-78 CNS = system: SNB-78 CNS
# LXFL 529 NSCLC = system: LXFL 529 NSCLC
# MOLT-4 leukemia = system: MOLT-4 leukemia
# MALME-3M melanoma = system: MALME-3M melanoma
# RPMI-8226 leukemia = system: RPMI-8226 leukemia
# RXF 393 renal = system: RXF 393 renal
smiles,measurement,setting,value
COc1ccc(N2C(=O)C3CC(c4ccc(C)cc4)c4c([nH]c5ccccc45)C3C2=O)cc1 (centres undefined),TGI,M19-MEL melanoma,> 100 µM
same,TGI,KM12 colon,> 100 µM
same,TGI,A549 NSCLC,43.3 µM
same,TGI,U251 CNS,16.8 µM
same,TGI,OVCAR-5 ovarian,> 100 µM
same,TGI,IGROV1 ovarian,> 79.6 µM
same,TGI,HCC-2998 colon,> 100 µM
same,TGI,OVCAR-8 ovarian,38.9 µM
same,TGI,SK-MEL-28 melanoma,99.7 µM
same,TGI,XF 498 CNS,> 74 µM
same,TGI,COLO 205 colon,> 48.5 µM
same,TGI,DMS 273 small cell lung,> 100 µM
same,TGI,SNB-75 CNS,51 µM
same,TGI,KM20L2 colon,> 100 µM
same,TGI,NCI-H460 lung,31.8 µM
same,TGI,OVCAR-3 ovarian,12.3 µM
same,TGI,UO-31 renal,> 70.7 µM
same,TGI,UACC-257 melanoma,> 100 µM
same,TGI,SK-OV-3 ovarian,93 µM
same,TGI,HCT-116 colon,17.2 µM
same,TGI,SN12C renal,31.8 µM
same,TGI,CAKI-1 renal,> 100 µM
same,TGI,TK-10 renal,> 95.3 µM
same,TGI,786-0 renal,26.6 µM
same,TGI,CCRF-CEM leukemia,> 45.6 µM
same,TGI,SF-295 CNS,> 86.8 µM
same,TGI,NCI-H522 lung,51 µM
same,TGI,SR leukemia,4.55 µM
same,TGI,HCT-15 colon,> 89.7 µM
same,TGI,UACC-62 melanoma,> 100 µM
same,TGI,SF-539 CNS,> 62.5 µM
same,TGI,EKVX NSCLC,> 100 µM
same,TGI,SK-MEL-2 melanoma,> 100 µM
same,TGI,SK-MEL-5 melanoma,> 100 µM
same,TGI,SF-268 CNS,> 76.3 µM
same,TGI,M14 melanoma,> 89.2 µM
same,TGI,DLD-1 colon,> 100 µM
same,TGI,SW-620 colon,> 55.3 µM
same,TGI,NCI-H23 lung,> 93.9 µM
same,TGI,HT29 colon,> 100 µM
same,TGI,NCI-H226 lung,28.1 µM
same,TGI,HOP-62 NSCLC,53.7 µM
same,TGI,HOP-92 NSCLC,73.7 µM
same,TGI,LOX IMVI melanoma,26.4 µM
same,TGI,OVCAR-4 ovarian,27.5 µM
same,TGI,DMS 114 small cell lung,> 86 µM
same,TGI,ACHN renal,> 63.8 µM
same,TGI,HOP-18 NSCLC,10.3 µM
same,TGI,SNB-19 CNS,> 56.3 µM
same,TGI,A498 renal,55.6 µM
same,TGI,HL-60(TB) leukemia,30.9 µM
same,TGI,K-562 leukemia,> 100 µM
same,TGI,SNB-78 CNS,98.7 µM
same,TGI,LXFL 529 NSCLC,> 56.1 µM
same,TGI,MOLT-4 leukemia,> 58.7 µM
same,TGI,MALME-3M melanoma,49.6 µM
[O-]c1ccccc1/C=N/c1nccs1.[O-]c1ccccc1/C=N/c1nccs1.[O]=[U+2]=[O],GI50,M19-MEL melanoma,> 100 µM
same,TGI,M19-MEL melanoma,> 100 µM
same,GI50,KM12 colon,> 100 µM
same,TGI,KM12 colon,> 100 µM
same,GI50,A549 NSCLC,> 100 µM
same,TGI,A549 NSCLC,> 100 µM
same,GI50,RPMI-8226 leukemia,37.7 µM
same,TGI,RPMI-8226 leukemia,> 100 µM
same,GI50,OVCAR-5 ovarian,> 100 µM
same,TGI,OVCAR-5 ovarian,> 100 µM
same,GI50,IGROV1 ovarian,42.4 µM
same,TGI,IGROV1 ovarian,> 100 µM
same,GI50,HCC-2998 colon,75.1 µM
same,TGI,HCC-2998 colon,> 100 µM
same,GI50,OVCAR-8 ovarian,> 100 µM
same,TGI,OVCAR-8 ovarian,> 100 µM
same,GI50,SK-MEL-28 melanoma,> 100 µM
same,TGI,SK-MEL-28 melanoma,> 100 µM
same,GI50,XF 498 CNS,98.9 µM
same,TGI,XF 498 CNS,> 100 µM
same,GI50,COLO 205 colon,> 100 µM
same,TGI,COLO 205 colon,> 100 µM
same,GI50,DMS 273 small cell lung,7.15 µM
same,TGI,DMS 273 small cell lung,> 100 µM
same,GI50,SNB-75 CNS,> 100 µM
same,TGI,SNB-75 CNS,> 100 µM
same,GI50,KM20L2 colon,> 100 µM
same,TGI,KM20L2 colon,> 100 µM
same,GI50,OVCAR-3 ovarian,> 100 µM
same,TGI,OVCAR-3 ovarian,> 100 µM
same,GI50,UO-31 renal,37.4 µM
same,TGI,UO-31 renal,> 100 µM
same,GI50,UACC-257 melanoma,> 100 µM
same,TGI,UACC-257 melanoma,> 100 µM
same,GI50,SK-OV-3 ovarian,> 100 µM
same,TGI,SK-OV-3 ovarian,> 100 µM
same,GI50,HCT-116 colon,11.5 µM
same,TGI,HCT-116 colon,> 100 µM
same,GI50,SN12C renal,> 100 µM
same,TGI,SN12C renal,> 100 µM
same,GI50,CAKI-1 renal,37.9 µM
same,TGI,CAKI-1 renal,> 100 µM
same,GI50,TK-10 renal,33.6 µM
same,TGI,TK-10 renal,78.7 µM
same,GI50,786-0 renal,25 µM
same,TGI,786-0 renal,> 100 µM
same,GI50,CCRF-CEM leukemia,> 100 µM
same,TGI,CCRF-CEM leukemia,> 100 µM
same,GI50,SF-295 CNS,> 100 µM
same,TGI,SF-295 CNS,> 100 µM
same,GI50,NCI-H522 lung,61.4 µM
same,TGI,NCI-H522 lung,> 100 µM
same,GI50,HCT-15 colon,22.2 µM
same,TGI,HCT-15 colon,> 100 µM
same,GI50,UACC-62 melanoma,> 100 µM
same,TGI,UACC-62 melanoma,> 100 µM
same,GI50,SF-539 CNS,23.6 µM
same,TGI,SF-539 CNS,> 100 µM
same,GI50,EKVX NSCLC,> 100 µM
same,TGI,EKVX NSCLC,> 100 µM
same,GI50,SK-MEL-2 melanoma,> 100 µM
same,TGI,SK-MEL-2 melanoma,> 100 µM
same,GI50,SK-MEL-5 melanoma,> 100 µM
same,TGI,SK-MEL-5 melanoma,> 100 µM
same,GI50,SF-268 CNS,> 100 µM
same,TGI,SF-268 CNS,> 100 µM
same,GI50,M14 melanoma,> 100 µM
same,TGI,M14 melanoma,> 100 µM
same,GI50,DLD-1 colon,22.4 µM
same,TGI,DLD-1 colon,> 100 µM
same,GI50,SW-620 colon,99.8 µM
same,TGI,SW-620 colon,> 100 µM
same,GI50,NCI-H23 lung,> 100 µM
same,TGI,NCI-H23 lung,> 100 µM
same,GI50,HT29 colon,> 100 µM
same,TGI,HT29 colon,> 100 µM
same,GI50,NCI-H226 lung,> 100 µM
same,TGI,NCI-H226 lung,> 100 µM
same,GI50,HOP-62 NSCLC,> 100 µM
same,TGI,HOP-62 NSCLC,> 100 µM
same,GI50,LOX IMVI melanoma,25.7 µM
same,TGI,LOX IMVI melanoma,> 100 µM
same,GI50,OVCAR-4 ovarian,> 100 µM
same,TGI,OVCAR-4 ovarian,> 100 µM
same,GI50,DMS 114 small cell lung,11.1 µM
same,TGI,DMS 114 small cell lung,> 100 µM
same,GI50,ACHN renal,> 100 µM
same,TGI,ACHN renal,> 100 µM
same,GI50,HOP-18 NSCLC,5.75 µM
same,TGI,HOP-18 NSCLC,> 100 µM
same,GI50,SNB-19 CNS,12.7 µM
same,TGI,SNB-19 CNS,> 100 µM
same,GI50,A498 renal,26.2 µM
same,TGI,A498 renal,> 100 µM
same,GI50,HL-60(TB) leukemia,35.5 µM
same,TGI,HL-60(TB) leukemia,> 100 µM
same,GI50,K-562 leukemia,57.1 µM
same,TGI,K-562 leukemia,> 100 µM
same,GI50,SNB-78 CNS,> 100 µM
same,TGI,SNB-78 CNS,> 100 µM
same,GI50,LXFL 529 NSCLC,29.1 µM
same,TGI,LXFL 529 NSCLC,> 100 µM
same,GI50,MOLT-4 leukemia,27.4 µM
same,TGI,MOLT-4 leukemia,> 100 µM
same,GI50,MALME-3M melanoma,> 100 µM
same,TGI,MALME-3M melanoma,> 100 µM
same,GI50,RXF 393 renal,> 100 µM
same,TGI,RXF 393 renal,> 100 µM
